Several values for one entry are separate records, joined by “and”; a condition that tells them apart may be missing. Identical values can stand only once.
Tests used:
Type in all cases: in vivo, human
[1] = Quantitation of the compound in serum by high performance liquid chromatography (Examples 3, 4); conditions: for level in serum: healthy persons, newborns to 90-year-old
Description: (§1) Standard solution of 2-amino-3-[2-(α-mannopyranosyl)indole-3-yl]propionic acid obtained in Example 1 above was prepared. Next, 350 μl of the standard solution was added to 500 μl of 0.1N hydrochloric acid containing 1% vitamin C, mixed with 50 μl of 40 μM N-methyl serotonin as an internal standard then 100 μl of 60% perchloric acid, and centrifuged at 3000 rpm at 4° C. The supernatant was filtered through a 0.22 μm filter to obtain a filtrate.
(§2) The filtrate was subjected to high performance liquid chromatography under the following conditions:
Column: Finepak SILC18-T5 (4 mm×25 cm, JASCO Corporation)
Development solvent: Mixed solvent of acetonitrile and buffer (70 mM citric acid: 60 mM disodium phosphate=1;1, v/v, pH3.5)
Detection: Fluorescence, excited at 302 nm, determined at 350 nm
Sera from healthy persons and patients with renal disease were quantitated for the compound of the present invention. First, bloods were collected from the subjects and left to stand at room temperature for 30 minutes for coagulation. Next, the sera were collected by centrifugation at 3000 rpm for 10 minutes and stored at −80° C. until use. Sera from healthy persons (males and females, newborns to 90-year-old persons) were quantitated for the compound of the present invention in the same manner as that of Example 2 except that sera were used instead of the standard solution. […] No difference was detected between ages or between sexes.
Next, sera from patients with renal disease (17 males, average age of 53.9; 13 females, average age of 46.4) were quantitated for the compound of the present invention. […] As shown in this figure, the average value of 856 ng/ml (SD 247) was obtained for samples from male patients while 854 ng/ml (SD 305) for samples from female patients.
(§3) Sera and cerebrospinal fluids from healthy persons and patients with central nervous disease were quantitated for the compound of the present invention. Both sera and cerebrospinal fluids were collected from 22 healthy persons, one patient with spinocerebellar ataxia and one patient with metastatic brain tumor, and quantitated for the compound of the present invention in the sera and the cerebrospinal fluids in the same manner as that of Example 2 except that sera or cerebrospinal fluids were used instead of the standard solution. […] The result of quantitation of the compound in cerebrospinal fluids is shown in FIG. 3 in which ●, □ and Δ show the healthy persons, the patient with spinocerebellar ataxia, and the patient with metastatic brain tumor, respectively. As shown in this figure, the level of the compound in cerebrospinal fluids from healthy persons was determined to be 130.4 ng/ml (SD 29.1). The level of the compound in cerebrospinal fluid from the patient with spinocerebellar ataxia was determined to be 399.4 ng/ml. The level of the compound in cerebrospinal fluid from the patient with metastatic brain tumor was determined to be 822.6 ng/ml.

[2] = GFR assay: the present compound in urine and sera by enzyme immunoassay, clearance (Example 8)
Description: Enzyme immunoassay was performed using the antibody prepared in Example 6. First, 50 μl of 2-amino-3-[2-(α-D-mannopyranosyl)indole-3-yl]propionic acid-BSA conjugate solution (20 μg/ml 0.1M carbonate buffer, pH9.5) was dispensed into a 96-well microtiter plate (NUNC. Corp.) and left to stand at 4° C. overnight. After washing the plate three times with PBS, 250 μl of 1% BSA/PBS solution was dispensed into the plate and left to stand at room temperature for 1 hour. Then, the plate was washed three times with PBS to be used as a reaction plate. Next, 50 μl of a test sample diluted with 0.1M phosphate buffer (pH 7.4) supplemented with varied concentrations of 2-amino-3-[2-(α-D-mannopyranosyl)indole-3-yl]propionic acid/0.1%BSA or 0.1M phosphate buffer supplemented with 0.1% BSA (pH7.4) was dispensed into the reaction plate into which 50 μl of the monoclonal antibody prepared in Example 6 (10 ng/ml, 0.1M phosphate buffer solution supplemented with 0.1% BSA, pH7.4) was added while stirring. The mixture was allowed to react at room temperature for 3 hours. Then, after the reaction was completed, the plate was washed five times with PBS containing 0.05% Tween 20, and then 50 μl of POD labeled-anti-mouse immunoglobulins-rabbit IgG (DAKO) was added to the plate for reaction at room temperature for 1 hour. After the reaction, the plate was washed five times with PBS containing 0.05% Tween 20, added with 50 μl of MCDP/50 mM citrate buffer solution (pH5.0), and the mixture was allowed to react at room temperature for 30 minutes. Finally, 50 μl of a reaction stopper (ethyl diethyldithiocarbamate) was added to the plate, and absorbance was then determined at 660 nm by a microplate reader. The calibration curve is shown in FIG. 5 in which the concentration of 2-amino-3-[2-(α-D-mannopyranosyl)indole-3-yl]propionic acid was indicated as a concentration of single compound.
Eighteen patients with non-renal disease were assayed for the levels of 2-amino-3-[2-(α-mannopyranosyl)indole-3-yl]propionic acid in their urine and sera as described in Example 7. Urine samples stored for 24 hours were used. Volumes of those samples were determined and then partially stored at −80° C. until assay. Upon use, the frozen urine samples were thawed at 37° C. and kept warm. Subsequently, after sufficient stirring and mixing, the samples were centrifuged at 3000 rpm for 10 minutes to remove impurities. The resultant supernatants were used as samples. Serum samples were collected from the patients' blood, left to stand at room temperature for 30 minutes for coagulation, and centrifuged to collect sera which were stored at −80° C. until use.
Clearance View=(level in urine×urine volume)/(24×60×serum level)

[3] = Quantitation of the compound in amniotic fluid by high performance liquid chromatography (Example 5)
Description: as §1, §2
Amniotic fluids from pregnant healthy persons and pregnant patients with uremic syndrome staying in hospital were quantitated for the compound of the present invention. Amniotic fluids were collected from 21 healthy persons (21-41 weeks old) and 9 pregnant patients with uremic syndrome (24-49 weeks old), and assayed for the compound of the present invention. The quantitation was performed in the same manner as that of Example 2 except that amniotic fluids were used instead of the standard solution. The results are shown in FIG. 4 in which Δ and ● show the healthy persons and the pregnant patients with uremic syndrome, respectively. As shown in this figure, 353.0 ng/ml (SD 120.1) was obtained for the healthy persons while […] for the pregnant patients with uremic syndrome.

[4] = Quantitation of the compound in cerebrospinal fluid by high performance liquid chromatography (Example 4)
Description: as §1, §2, §3

level in serum, average value ([1]; female patients with renal disease (13 females), SD 305): 854 ng/mL | range of levels in sera from 99% of subjects ([1]; healthy persons (n=50)): 52 to 99 ng/mL | level in serum ([1]; females, SD 12.6): 74.5 ng/mL | level in serum ([1]; males, SD 10.3): 76.3 ng/mL | level in serum, average value ([1]; male patients with renal disease (17 males), SD 247): 856 ng/mL | range of levels in sera from 99% of subjects ([1]; patients with renal dysfunction (n=30)): 307 to 1403 ng/mL | level in sera ([1]; sera of Example 4 subjects, SD 13.8): 69.9 ng/mL | clearance (ml/min) the present compound ([2]; Average of 18 subjects): 68.40 mL/min | the present compound in serum ([2]; Average of 18 subjects): 0.24 nmol/mL | the present compound in urine ([2]; Average of 18 subjects): 14.87 nmol/mL | range of levels in amniotic fluids from 99% of subjects ([3]; healthy persons (n=21)): 113 to 593 ng/mL | level in amniotic fluids ([3]; pregnant healthy persons (n=21), SD 120.1): 353.0 ng/mL | range of levels in amniotic fluids from 99% of subjects ([3]; pregnant patients with uremic syndrome (n=9)): 675 to 2147 ng/mL | level in amniotic fluids ([3]; pregnant patients with uremic syndrome (n=9), SD 367.9): 410.7 ng/mL | range of levels in cerebrospinal fluids from 99% of subjects ([4]; healthy persons (n=22)): 72 to 188 ng/mL | level in cerebrospinal fluids ([4]; healthy persons (n=22), SD 29.1): 130.4 ng/mL | level in cerebrospinal fluid ([4]; one patient with metastatic brain tumor): 822.6 ng/mL
SMILES: NC(Cc1c([C@H]2O[C@H](CO)[C@@H](O)[C@H](O)[C@@H]2O)[nH]c2ccccc12)C(=O)O (stereo partly drawn) [the present compound, 2-amino-3-[2-(α-mannopyranosyl)indole-3-yl]propionic acid]
the present compound in serum ([2]; individual subjects 1-18, patients with non-renal disease): 0.240 nmol/ml (2×) and 0.193 nmol/ml (3×) and 0.166 nmol/ml and 0.280 nmol/ml and 0.200 nmol/ml and 0.319 nmol/ml (3×) and 0.279 nmol/ml (2×) and 0.186 nmol/ml and 0.309 nmol/ml and 0.213 nmol/ml and 0.226 nmol/ml and 0.159 nmol/ml | the present compound in urine ([2]; individual subjects 1-18, urine stored for 24 hours): 11.677 nmol/mL and 7.195 nmol/mL and 4.242 nmol/mL and 14.862 nmol/mL and 19.188 nmol/mL and 7.595 nmol/mL and 10.649 nmol/mL and 14.349 nmol/mL and 13.645 nmol/mL and 27.103 nmol/mL and 16.348 nmol/mL and 12.726 nmol/mL and 11.931 nmol/mL and 26.935 nmol/mL and 15.040 nmol/mL and 12.989 nmol/mL and 33.653 nmol/mL and 7.573 nmol/mL | clearance (ml/min) the present compound ([2]; individual subjects 1-18, (level in urine×urine volume)/(24×60×serum level)): 64.2 mL/min and 54.2 mL/min and 58.1 mL/min and 80.8 mL/min and 64.3 mL/min and 53.0 mL/min and 72.3 mL/min and 60.7 mL/min and 91.7 mL/min and 56.1 mL/min and 89.1 mL/min and 61.9 mL/min and 89.2 mL/min and 77.6 mL/min and 67.7 mL/min and 65.3 mL/min and 52.8 mL/min | level in cerebrospinal fluid ([4]; one patient with spinocerebellar ataxia): 399.4 ng/mL | levels in cerebrospinal fluids ([4]; patients with spinocerebellar ataxia or metastatic brain tumor): ≥ 400 ng/mL

Source: patent publication US6610502B1, “Compound 2-amino-3-[2-(α-mannopyranosyl)indol-3-yl]propionic acid, process for preparing the same, and method for inspecting function of living body with the novel compound” (Kyowa Medex Co., Ltd., priority 1997, dated 2003)
